In patent US20060063751A1, “Novel fused heterocycles and uses thereof” (AstraZeneca AB, priority 2003, published 2006):

Biological target: T1, recombinant HsEg5 motor domain (amino acids 1-369-8His) (Homo sapiens, UniProt P52732)
T1 construct: Enzyme was recombinant HsEg5 motor domain (amino acids 1-369-8His); 8His (C)
T1 sequence (P52732 1-369): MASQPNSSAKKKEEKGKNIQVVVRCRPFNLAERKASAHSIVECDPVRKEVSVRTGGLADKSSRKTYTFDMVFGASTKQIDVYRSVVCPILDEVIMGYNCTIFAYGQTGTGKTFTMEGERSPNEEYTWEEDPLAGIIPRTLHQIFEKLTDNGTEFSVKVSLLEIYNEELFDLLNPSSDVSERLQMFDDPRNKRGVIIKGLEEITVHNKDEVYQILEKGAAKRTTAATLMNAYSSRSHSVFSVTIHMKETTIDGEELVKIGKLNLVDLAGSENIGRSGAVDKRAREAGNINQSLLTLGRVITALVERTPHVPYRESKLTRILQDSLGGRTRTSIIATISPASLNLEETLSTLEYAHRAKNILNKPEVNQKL
Test: Malachite Green Assay (Eg5 motor ATPase, phosphate liberated from ATP)
Assay type: biochemical
Method: Enzymatic activity of the Eg5 motor and effects of inhibitors was measured using a malchite green assay, which measures phosphate liberated from ATP, and has been used previously to measure the activity of kinesin motors (Hackney and Jiang, 2001). Enzyme was recombinant HsEg5 motor domain (amino acids 1-369-8His) and was added at a final concentration of 6 nM to 100 μl reactions. Buffer consisted of 25 mM PIPES/KOH, pH 6.8, 2 mM MgCl2, 1 mM EGTA, 1 mM dtt, 0.01% Triton X-100 and 5 μM paclitaxel. Malachite green/ammonium molybdate reagent was prepared as follows: for 800 ml final volume, 0.27 g of Malachite Green (J. T. Baker) was dissolved in 600 ml of H2O in a polypropylene bottle. […]
5 μl of compound diluted in 12% DMSO was added to the wells of 96 well plates. […] The reactions were then quenched by the addition of 150 μl malachite green/ammonium molybdate reagent, and absorbance read at 650 nanometers exactly 5 min after quench using a Spectramax Plus plate reader (Molecular Devices). Data was graphed and IC50s calculated using ExCel Fit (Microsoft).
Enzymatic activity of the Eg5 motor and effects of inhibitors was measured using a malachite green assay, which measures phosphate liberated from ATP, and has been used previously to measure the activity of kinesin motors (Hackney and Jiang, 2001). […] Data was graphed and IC50s calculated using ExCel Fit (Microsoft).

| IC50 [µM] | SMILES |
| --- | --- |
| 0.136 | CCC(c1nc2snc(C)c2c(=O)n1Cc1ccccc1)N(CCCN)C(=O)c1cccc(Cl)c1Cl (single isomer, unassigned; (+)) [Section 3: Example A7, (+) N-(3-Amino-propyl)-N-[1-(5-benzyl-3-methyl-4-oxo-4,5-dihydro-isothiazolo[5,4-d]pyrimidin-6-yl)-propyl]-2,3-dichloro-benzamide hydrogen chloride] |
| 0.09 | CCC(c1nc2c(C)nsc2c(=O)n1Cc1ccccc1)N(CCCN)C(=O)c1ccc(C)cc1 (centres unmarked) [Section 2: Example E1, N-(3-Amino-propyl)-N-[1-(6-benzyl-3-methyl-7-oxo-6,7-dihydro-isothiazolo[4,5-d]pyrimidin-5-yl)-propyl]-4-methyl-benzamide hydrogen chloride] |
